Measured values from PubChem BioAssay AID330 (DTP/NCI, 2004).
Several values for one entry are separate records, joined by “and”; a condition that tells them apart may be missing. Equal values may be shown once. Inconclusive results and toxic doses are left out. Rule for the calls: active = survival T/C of 150% or more; inactive = T/C below 125% in these data.

Tested on: P388 leukemia ip, CD2F1 mice, survival T/C
Test: NCI In Vivo Anticancer Drug Screen. Data for tumor model P388 Leukemia (intraperitoneal) in CD2F1 (CDF1) mice
Settings: endpoint: median survival time, higher = longer survival
Summary of the method: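 Mice carrying the transplanted tumor received test compound or vehicle. Survival was recorded in each group, and the value is the treated-group measurement divided by that of the vehicle-treated control group.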

[1] = dose: 100.0 mg/kg/injection, schedule: Q01DX001 (ip), vehicle: saline with Tween-80
[2] = dose: 200.0 mg/kg/injection, schedule: Q01DX001 (ip), vehicle: saline with Tween-80
[3] = dose: 400.0 mg/kg/injection, schedule: Q01DX001 (ip), vehicle: saline with Tween-80
[4] = dose: 60.0 mg/kg/injection, schedule: Q01DX005 (ip), vehicle: saline with Tween-80
[5] = dose: 120.0 mg/kg/injection, schedule: Q01DX005 (ip), vehicle: saline with Tween-80
[6] = dose: 240.0 mg/kg/injection, schedule: Q01DX005 (ip), vehicle: saline with Tween-80
[7] = dose: 50.0 mg/kg/injection, schedule: Q01DX009 (ip), vehicle: saline
[8] = dose: 100.0 mg/kg/injection, schedule: Q01DX009 (ip), vehicle: saline
[9] = dose: 100.0 mg/kg/injection, schedule: Q04DX003 (ip), vehicle: saline with Tween-80
[10] = dose: 200.0 mg/kg/injection, schedule: Q04DX003 (ip), vehicle: saline with Tween-80
[11] = dose: 200.0 mg/kg/injection, schedule: Q04DX002 (ip), vehicle: saline with Tween-80
[12] = dose: 50.0 mg/kg/injection, schedule: Q01DX009 (ip), vehicle: Klucel (hydroxypropylcellulose) (HPC)
[13] = dose: 100.0 mg/kg/injection, schedule: Q04DX002 (ip), vehicle: saline with Tween-80
[14] = dose: 400.0 mg/kg/injection, schedule: Q04DX002 (ip), vehicle: saline with Tween-80
[15] = dose: 50.0 mg/kg/injection, schedule: Q01DX005 (ip), vehicle: saline with Tween-80
[16] = dose: 100.0 mg/kg/injection, schedule: Q01DX005 (ip), vehicle: saline with Tween-80
[17] = dose: 200.0 mg/kg/injection, schedule: Q01DX005 (ip), vehicle: saline with Tween-80

Measured: T/C

CC(C)(C)NC(=O)c1ccc2c(n1)C(=O)N(C(C)(C)C)C2=S
inactive: [1] 91 % of control | [2] 94 % of control | [3] 100 % of control

CC(=O)OC1(c2ccccc2)CCN(C)CC1C(=O)c1ccccc1 (stereo not given)
inactive: dose: 50.0 mg/kg/injection, schedule: Q01DX005 (ip), vehicle: saline 109 % of control | dose: 100.0 mg/kg/injection, schedule: Q01DX005 (ip), vehicle: saline 116 % of control

O=C1CCC(C(=O)O)C(C(=O)O)C1 (stereo not given)
inactive: dose: 50.0 mg/kg/injection, schedule: Q01DX001 (ip), vehicle: saline 107 % of control | dose: 100.0 mg/kg/injection, schedule: Q01DX001 (ip), vehicle: saline 100 % of control | dose: 200.0 mg/kg/injection, schedule: Q01DX001 (ip), vehicle: saline 101 % of control | dose: 400.0 mg/kg/injection, schedule: Q01DX001 (ip), vehicle: saline 107 % of control

O=C(/N=C1\N=Nc2nc(C(C(=O)c3cccs3)c3nc4n(c3O)/C(=N/C(=O)Nc3ccc(Cl)cc3)N=N4)c(O)n21)Nc1ccc(Cl)cc1 (stereo not given)
inactive: [4] 95 % of control | [5] 95 % of control | [6] 100 % of control

Cc1ccc2nc(-c3ccc4nc(-c5ccc(N=Nc6ccc(-c7nc8ccc(-c9nc%10ccc(C)c(S(=O)(=O)O)c%10s9)cc8s7)cc6)cc5)sc4c3)sc2c1S(=O)(=O)O
inactive: [7] 113 % of control and 116 % of control | [8] 116 % of control and 121 % of control | dose: 200.0 mg/kg/injection, schedule: Q01DX009 (ip), vehicle: saline 112 % of control and 123 % of control

COc1cccc(/C=N/C(/N=C/c2cccc(OC)c2O)c2cccc(OC)c2O)c1O
inactive: [4] 97 % of control | [5] 97 % of control | [6] 102 % of control

CC1=CC(=C(c2ccc(N)cc2)c2ccc(N)cc2)C=CC1=N
inactive: dose: 1.56 mg/kg/injection, schedule: Q01DX005 (ip), vehicle: water 117 % of control | dose: 3.12 mg/kg/injection, schedule: Q01DX005 (ip), vehicle: saline 117 % of control | dose: 12.5 mg/kg/injection, schedule: Q01DX005 (ip), vehicle: water 116 % of control

O=C1CN=C(c2ccccc2)c2cc(Cl)ccc2N1CC1CC1
inactive: dose: 100.0 mg/kg/injection, schedule: Q04DX003 (ip), vehicle: saline 100 % of control | dose: 200.0 mg/kg/injection, schedule: Q04DX003 (ip), vehicle: saline 94 % of control | dose: 400.0 mg/kg/injection, schedule: Q04DX003 (ip), vehicle: saline 101 % of control

COc1ccc(Br)cc1/C=N/N=C/c1cc(Br)ccc1OC
inactive: [9] 90 % of control | [10] 86 % of control | dose: 400.0 mg/kg/injection, schedule: Q04DX003 (ip), vehicle: saline with Tween-80 86 % of control

O=C1CC2(C(=O)N1)c1ccccc1-c1ccccc12
inactive: dose: 50.0 mg/kg/injection, schedule: Q01DX009 (ip), vehicle: saline with Tween-80 96 % of control | dose: 100.0 mg/kg/injection, schedule: Q01DX009 (ip), vehicle: saline with Tween-80 103 % of control | dose: 200.0 mg/kg/injection, schedule: Q01DX009 (ip), vehicle: saline with Tween-80 119 % of control

C=C(C(=O)OC1C/C(C)=C/C(O)C/C(C)=C/C2OC(=O)C(=C)C21)C(C)O (stereo not given)
inactive: dose: 25.0 mg/kg/injection, schedule: Q04DX002 (ip), vehicle: Klucel (hydroxypropylcellulose) (HPC) 109 % of control | dose: 25.0 mg/kg/injection, schedule: Q04DX002 (ip), vehicle: saline with Tween-80 110 % of control | dose: 50.0 mg/kg/injection, schedule: Q04DX002 (ip), vehicle: Klucel (hydroxypropylcellulose) (HPC) 117 % of control | dose: 50.0 mg/kg/injection, schedule: Q04DX002 (ip), vehicle: saline with Tween-80 102 % of control | dose: 100.0 mg/kg/injection, schedule: Q04DX002 (ip), vehicle: Klucel (hydroxypropylcellulose) (HPC) 117 % of control | [11] 124 % of control

CC1CC2OC2/C=C\C=C\C(=O)Cc2c(Cl)c(O)cc(O)c2C(=O)O1 (stereo not given)
inactive: dose: 6.25 mg/kg/injection, schedule: Q01DX009 (ip), vehicle: Klucel (hydroxypropylcellulose) (HPC) 107 % of control | dose: 12.5 mg/kg/injection, schedule: Q01DX009 (ip), vehicle: Klucel (hydroxypropylcellulose) (HPC) 108 % of control | dose: 25.0 mg/kg/injection, schedule: Q01DX009 (ip), vehicle: Klucel (hydroxypropylcellulose) (HPC) 110 % of control | [12] 109 % of control

NC(=O)N/N=C/c1cccc(O)c1O
inactive: [12] 101 % of control | dose: 100.0 mg/kg/injection, schedule: Q01DX009 (ip), vehicle: Klucel (hydroxypropylcellulose) (HPC) 107 % of control | dose: 200.0 mg/kg/injection, schedule: Q01DX009 (ip), vehicle: Klucel (hydroxypropylcellulose) (HPC) 116 % of control

OCC(O)C(O)C(O)c1nnc2c3ccccc3c(-c3ccccc3)nn12 (stereo not given)
inactive: [1] 89 % of control | [13] 91 % of control | [2] 90 % of control | [11] 90 % of control | [3] 88 % of control | [14] 93 % of control

Cn1c(O)c(N=NC(N)=S)c2ccccc21
inactive: [9] 95 % of control | [10] 87 % of control

CN1CCOc2c1cnn(CCO)c2=O
inactive: [4] 108 % of control | [5] 108 % of control | [6] 102 % of control

C=CC[n+]1ccc(-c2cc[n+](CC=C)cc2)cc1
inactive: dose: 6.25 mg/kg/injection, schedule: Q01DX009 (ip), vehicle: saline 115 % of control | dose: 12.5 mg/kg/injection, schedule: Q01DX009 (ip), vehicle: saline 112 % of control and 117 % of control

N#Cc1c(N)nc(-c2ccccc2)nc1Nc1ccccc1
inactive: [4] 90 % of control | [5] 104 % of control | [6] 99 % of control

Cc1ccc(N)c2ccccc12
inactive: [7] 117 % of control | [8] 112 % of control

CS(=O)CCC1C(=O)OC(C(C)(C)C)N1C(=O)c1ccccc1 (stereo not given)
inactive: [4] 101 % of control | [5] 100 % of control | [6] 105 % of control

CC(O)C(NC(=O)C(Cc1ccc(O)cc1)NC(=O)C(CCCCN)N(C(=O)OCc1ccccc1)C(=O)OCc1ccccc1)C(=O)OCc1ccccc1 (stereo not given)
inactive: [15] 94 % of control | [16] 92 % of control | [17] 93 % of control

[Co+2].[O-]c1ccccc1/C=N/Nc1ccccn1.[O-]c1ccccc1/C=N/Nc1ccccn1
inactive: [13] 91 % of control | [11] 90 % of control | [14] 95 % of control

CCOC(=O)C(OCC)C1=Cc2ccccc2CC1 (stereo not given)
inactive: dose: 25.0 mg/kg/injection, schedule: Q01DX001 (ip), vehicle: Klucel (hydroxypropylcellulose) (HPC) 93 % of control | dose: 50.0 mg/kg/injection, schedule: Q01DX001 (ip), vehicle: Klucel (hydroxypropylcellulose) (HPC) 100 % of control | dose: 100.0 mg/kg/injection, schedule: Q01DX001 (ip), vehicle: Klucel (hydroxypropylcellulose) (HPC) 93 % of control | dose: 200.0 mg/kg/injection, schedule: Q01DX001 (ip), vehicle: Klucel (hydroxypropylcellulose) (HPC) 102 % of control | dose: 400.0 mg/kg/injection, schedule: Q01DX001 (ip), vehicle: Klucel (hydroxypropylcellulose) (HPC) 107 % of control

CCCCCCCCCCCCCCCCCC(=O)OCCN(C=O)C[n+]1ccccc1
inactive: dose: 100.0 mg/kg/injection, schedule: Q04DX002 (ip), vehicle: saline 93 % of control | dose: 200.0 mg/kg/injection, schedule: Q04DX002 (ip), vehicle: saline 120 % of control

O=C(O)C(Cc1ccc(O)cc1)c1ccc(C(Cc2ccc(O)cc2)C(=O)O)cc1 (stereo not given)
inactive: [15] 105 % of control | [16] 102 % of control | [17] 100 % of control
